Consider 1 compound from US20240148900A1, “IMMUNOSTIMULATORY CYCLIC DI-NUCLEOTIDE DELIVERY SYSTEM COMPOSITIONS AND METHOD OF USE THEREOF” (VIRGINIA COMMONWEALTH UNIVERSITY, priority 2021, published 2024).

Series [1] in a line: Stability of CDG in 10% FBS-supplemented cell culture medium. In kind it is in vitro ADME. Particulars: 7 days in cell culture medium with 10% serum, 37° C., absorption at 254 nm. The text has this:
FIG. 1A-H. Characterization of STING-NVs. (a) UV-vis absorbance spectra of PEG-b-PLA NPs, 5c-i-motif DNA, and 5c-NPs. […] Lane legends: 1: 25 bp DNA ladder; 2: 9C-i-motif; 3: 3C-NPs; 4: 5C-NPs; 5: 7C-NPs; 6: 9C-NPs. (c) DLS graphs showing the hydrodynamic diameters of 5C-NPs (79±34 nm, PDI 0.157) and STING-NVs (81±32 nm, PDI 0.131). (d) A TEM image of STING-NVs. (e) Zeta potential of blank NPs, CDG-loaded NPs, and Lipo-CDG. STING-NVs: CDG-loaded 5C-NPs. (f) Stability of free CDG and CDG loaded in STING-NVs over 7-day incubation in 10% FBS-supplemented cell culture medium (37° C.). A254nm: 254 nm absorption from CDG; A560nm: 560 nm absorption from medium as an internal reference. (g, h) MST traces (g) and fitting curve (h) of the kinetic interaction between 5C-NPs and CDG at pH 7.4. Data represent mean±standard deviation (SD) (n=3).
The ability of STING-NVs to promote the biostability of CDG is presumably due to the steric hindrance of i-motif-NPs that prevent the access of nucleases. Using HPLC and microscale thermophoresis (MST), we further studied the binding of CDG with 5C-i-motifs, which is the basis for CDG loading into i-motif-modified NPs. In HPLC, relative to free CDG and 5C-i-motif, the delayed elution time of physically mixed CDG and 5C-i-motif indicated the complexation of CDG and 5C-i-motif (FIG. 10). […]

For the next series, the system named is RAW264.7 macrophages. In words: Cell uptake of FluoCDG by flow cytometry. In kind it is cell-based, murine. As to conditions: FluoCDG 0.5 μg/mL; free CDG over 2 h, formulations 0.5 h post incubation. The protocol:
CDG release from STING-NVs. First, STING-NVs were dispersed in 1 mL of 1×PBS at different pH and agitated at 200 rpm. Then the mixture was ultra-filtrated at each hour point. The filtrate was taken for CDG detection, and the same volume of fresh buffer was added back to the residual mixture. The amount of released CDG in the filtrate was determined by measuring the absorption at 254 nm using a UV-Vis spectrometer. Lipo-CDG Synthesis. DOTAP, cholesterol, and DSPE-PEG(2000) were purchased from Avanti Polar Lipids. Lipids were mixed at molar ratios of 1:1:0.2 DOTAP:cholesterol:DSPE-PEG(2000). Lipid mixtures were dried under a nitrogen stream in glass test tubes. The resulting lipid films were placed in a desiccation system overnight. […] The CDG content of the liposomes was determined by measuring the absorbance peak of the liposomes at 254 nm, corresponding to the maximum absorbance of CDG, subtracting the lipid contribution to absorbance at this wavelength. […] Secreted IFN-α was quantified with the LumiKine Xpress mIFN-α enzyme-linked immunosorbent assay kit (InvivoGen). Secreted IL-6 and IL-12 were quantified with the Mouse IL-6 Quantikine™ ELISA Kit (R&D Systems). […] Cells were analyzed for fluorescein signal (from fluorescein-modified CDG) on the CytoFLEX LX (Beckman Coulter) flow cytometer.
Background: In flow cytometry, cells or beads pass a laser one at a time.

Take `Nc1nc2c(ncn2[C@@H]2O[C@@H]3COP(=O)(O)O[C@H]4[C@@H](O)[C@H](n5cnc6c(=O)[nH]c(N)nc65)O[C@@H]4COP(=O)(O)O[C@H]3[C@H]2O)c(=O)[nH]1` [free CDG, cyclic dimeric guanosine monophosphate]: the “intact CDG” value in series [1] amounted to 2.3%. In the series with RAW264.7 macrophages, the “FluoCDG fluorescence signal enhancement” value is “only slight FluoCDG signal enhancement”.
